The results in this text go back to ChEMBL document CHEMBL5236603, “Discovery of mobocertinib, a potent, oral inhibitor of EGFR exon 20 insertion mutations in non-small cell lung cancer” (Bioorg Med Chem Lett, 2023).

The target of series [1] is Epidermal growth factor receptor (Homo sapiens, UniProt P04626+P00533+Q15303+P21860, L858R). In words: Inhibition of mouse EGFR L858R mutant stably expressed in mouse BaF3 cells assessed as cell viability incubated for 3 days by Cell Titer-Glo assay. In kind it is cell-based. (In general: In ATP-based viability assays light output follows the ATP content of the culture.)

In series [2] the target is T1, Tyrosine-protein kinase JAK3 (Homo sapiens) (UniProt P52333).
T1 sequence (whole entry): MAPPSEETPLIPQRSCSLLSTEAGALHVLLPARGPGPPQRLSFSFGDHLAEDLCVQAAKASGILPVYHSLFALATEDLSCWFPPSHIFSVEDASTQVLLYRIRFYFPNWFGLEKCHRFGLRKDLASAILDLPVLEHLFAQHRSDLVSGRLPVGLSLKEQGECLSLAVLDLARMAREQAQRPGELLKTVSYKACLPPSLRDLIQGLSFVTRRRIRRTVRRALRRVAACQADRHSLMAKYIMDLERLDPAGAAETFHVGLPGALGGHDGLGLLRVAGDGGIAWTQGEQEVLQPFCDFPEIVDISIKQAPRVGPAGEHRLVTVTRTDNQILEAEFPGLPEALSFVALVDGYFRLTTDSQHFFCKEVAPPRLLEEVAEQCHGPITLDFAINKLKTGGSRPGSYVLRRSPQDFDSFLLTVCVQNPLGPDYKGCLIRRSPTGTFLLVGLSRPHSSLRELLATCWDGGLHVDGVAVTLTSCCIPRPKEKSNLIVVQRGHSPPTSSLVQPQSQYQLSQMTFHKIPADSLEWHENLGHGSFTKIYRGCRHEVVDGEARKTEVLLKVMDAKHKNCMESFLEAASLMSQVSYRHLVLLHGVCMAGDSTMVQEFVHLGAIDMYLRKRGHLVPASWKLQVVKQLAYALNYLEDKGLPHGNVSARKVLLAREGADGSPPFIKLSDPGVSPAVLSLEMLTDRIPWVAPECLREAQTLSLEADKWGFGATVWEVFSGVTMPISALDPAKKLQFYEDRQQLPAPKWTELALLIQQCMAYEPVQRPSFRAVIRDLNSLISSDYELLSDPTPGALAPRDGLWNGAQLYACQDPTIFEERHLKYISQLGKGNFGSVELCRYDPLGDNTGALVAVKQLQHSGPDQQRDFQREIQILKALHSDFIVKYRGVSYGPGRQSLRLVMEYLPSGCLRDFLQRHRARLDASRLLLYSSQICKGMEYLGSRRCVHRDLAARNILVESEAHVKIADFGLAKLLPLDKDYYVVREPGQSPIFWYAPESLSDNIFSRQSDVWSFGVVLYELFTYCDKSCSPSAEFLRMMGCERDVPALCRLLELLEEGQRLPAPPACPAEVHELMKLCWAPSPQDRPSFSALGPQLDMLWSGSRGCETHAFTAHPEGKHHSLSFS
In words: Inhibition of human JAK3 at 1 uM by hotspot assay relative to control.

Series [3] is described as follows: Cmax in CD-1 mouse at 10 mg/kg, po by LC/MS/MS analysis. In kind it is ADME, organism-based. Also noted: dose 10 mg/kg, route po. Particulars: in vivo.
The nature of series [4]: Inhibition of mouse EGFR L858R-T790M mutant stably expressed in mouse BaF3 cells assessed as cell viability incubated for 3 days by Cell Titer-Glo assay. The conditions noted are these: BaF3, 72 h. In kind it is cell-based.
In series [5] the target is T2, Epidermal growth factor receptor (Homo sapiens, UniProt P00533). The series can be described thus: Inhibition of human EGFR at 1 uM by hotspot assay relative to control.
Series [6] has as its target T2, Epidermal growth factor receptor. In words: Inhibition of […]-induced EGFR phosphorylation in human A549 cells pretreated for 2 hrs followed by EGF stimulation by immune assay. In kind it is cell-based.
The target of series [7] is T3, Cytoplasmic tyrosine-protein kinase BMX (Homo sapiens) (UniProt P51813).
T3 sequence (whole entry): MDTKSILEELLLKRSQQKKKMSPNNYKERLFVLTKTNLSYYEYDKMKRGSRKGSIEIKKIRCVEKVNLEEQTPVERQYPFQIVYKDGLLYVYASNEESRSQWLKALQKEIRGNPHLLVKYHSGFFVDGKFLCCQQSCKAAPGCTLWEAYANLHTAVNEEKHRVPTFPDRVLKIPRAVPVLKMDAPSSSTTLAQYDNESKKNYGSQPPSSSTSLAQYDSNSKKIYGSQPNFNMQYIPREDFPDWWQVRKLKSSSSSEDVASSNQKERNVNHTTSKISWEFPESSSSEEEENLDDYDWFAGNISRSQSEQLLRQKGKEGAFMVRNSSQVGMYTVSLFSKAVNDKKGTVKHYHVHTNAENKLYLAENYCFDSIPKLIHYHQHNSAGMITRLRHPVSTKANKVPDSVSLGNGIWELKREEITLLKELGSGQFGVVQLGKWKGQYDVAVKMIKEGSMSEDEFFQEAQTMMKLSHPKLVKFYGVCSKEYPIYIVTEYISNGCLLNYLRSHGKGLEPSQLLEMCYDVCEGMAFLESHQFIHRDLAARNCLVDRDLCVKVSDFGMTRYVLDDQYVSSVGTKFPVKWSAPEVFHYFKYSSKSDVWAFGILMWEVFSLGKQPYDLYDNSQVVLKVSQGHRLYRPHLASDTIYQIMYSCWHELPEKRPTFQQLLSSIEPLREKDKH
In words: Inhibition of human BMX at 1 uM by hotspot assay relative to control.

Series [8] concerns the target T4, Tyrosine-protein kinase ITK/TSK (Homo sapiens) (UniProt Q08881).
T4 sequence (whole entry): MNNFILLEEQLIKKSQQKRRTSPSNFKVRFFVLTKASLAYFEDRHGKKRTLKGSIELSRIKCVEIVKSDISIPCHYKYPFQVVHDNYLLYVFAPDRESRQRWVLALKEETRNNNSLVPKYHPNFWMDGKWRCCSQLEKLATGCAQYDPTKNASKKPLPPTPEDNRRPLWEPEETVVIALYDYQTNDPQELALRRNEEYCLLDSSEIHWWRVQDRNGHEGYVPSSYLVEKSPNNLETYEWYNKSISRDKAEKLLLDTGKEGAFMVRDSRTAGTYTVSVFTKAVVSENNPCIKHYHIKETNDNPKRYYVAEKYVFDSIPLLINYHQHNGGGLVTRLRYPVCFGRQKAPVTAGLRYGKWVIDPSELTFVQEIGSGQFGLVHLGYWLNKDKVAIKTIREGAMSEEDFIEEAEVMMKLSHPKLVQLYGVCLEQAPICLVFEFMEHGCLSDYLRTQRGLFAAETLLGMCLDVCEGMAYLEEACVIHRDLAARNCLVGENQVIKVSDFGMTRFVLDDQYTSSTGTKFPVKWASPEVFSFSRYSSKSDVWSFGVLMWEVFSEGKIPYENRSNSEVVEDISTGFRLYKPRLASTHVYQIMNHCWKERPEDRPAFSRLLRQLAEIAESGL
The series can be described thus: Inhibition of human ITK at 1 uM by hotspot assay relative to control.

A short description of series [9]: Toxicity in SCID mouse assessed as signs of clinical toxicity at 100 mg/kg, po administered for 7 consecutive days. In kind it is organism-based. Particulars: in vivo.
Series [10] concerns Tyrosine-protein kinase BTK (Homo sapiens), Q06187 [E41K]. The series can be described thus: Inhibition of human BTK E41K mutant at 1 uM by hotspot assay relative to control.
Series [11] can be described thus: Inhibition of mouse EGFR S768_D770dup D770_N771insSVD (SVD) mutant stably expressed in mouse BaF3 cells assessed as cell viability incubated for 3 days by Cell Titer-Glo assay. In kind it is cell-based. Particulars: BaF3, 72 h.

Where only a bound is given, the exact number is not on record here.

T2 sequence (P00533 whole entry): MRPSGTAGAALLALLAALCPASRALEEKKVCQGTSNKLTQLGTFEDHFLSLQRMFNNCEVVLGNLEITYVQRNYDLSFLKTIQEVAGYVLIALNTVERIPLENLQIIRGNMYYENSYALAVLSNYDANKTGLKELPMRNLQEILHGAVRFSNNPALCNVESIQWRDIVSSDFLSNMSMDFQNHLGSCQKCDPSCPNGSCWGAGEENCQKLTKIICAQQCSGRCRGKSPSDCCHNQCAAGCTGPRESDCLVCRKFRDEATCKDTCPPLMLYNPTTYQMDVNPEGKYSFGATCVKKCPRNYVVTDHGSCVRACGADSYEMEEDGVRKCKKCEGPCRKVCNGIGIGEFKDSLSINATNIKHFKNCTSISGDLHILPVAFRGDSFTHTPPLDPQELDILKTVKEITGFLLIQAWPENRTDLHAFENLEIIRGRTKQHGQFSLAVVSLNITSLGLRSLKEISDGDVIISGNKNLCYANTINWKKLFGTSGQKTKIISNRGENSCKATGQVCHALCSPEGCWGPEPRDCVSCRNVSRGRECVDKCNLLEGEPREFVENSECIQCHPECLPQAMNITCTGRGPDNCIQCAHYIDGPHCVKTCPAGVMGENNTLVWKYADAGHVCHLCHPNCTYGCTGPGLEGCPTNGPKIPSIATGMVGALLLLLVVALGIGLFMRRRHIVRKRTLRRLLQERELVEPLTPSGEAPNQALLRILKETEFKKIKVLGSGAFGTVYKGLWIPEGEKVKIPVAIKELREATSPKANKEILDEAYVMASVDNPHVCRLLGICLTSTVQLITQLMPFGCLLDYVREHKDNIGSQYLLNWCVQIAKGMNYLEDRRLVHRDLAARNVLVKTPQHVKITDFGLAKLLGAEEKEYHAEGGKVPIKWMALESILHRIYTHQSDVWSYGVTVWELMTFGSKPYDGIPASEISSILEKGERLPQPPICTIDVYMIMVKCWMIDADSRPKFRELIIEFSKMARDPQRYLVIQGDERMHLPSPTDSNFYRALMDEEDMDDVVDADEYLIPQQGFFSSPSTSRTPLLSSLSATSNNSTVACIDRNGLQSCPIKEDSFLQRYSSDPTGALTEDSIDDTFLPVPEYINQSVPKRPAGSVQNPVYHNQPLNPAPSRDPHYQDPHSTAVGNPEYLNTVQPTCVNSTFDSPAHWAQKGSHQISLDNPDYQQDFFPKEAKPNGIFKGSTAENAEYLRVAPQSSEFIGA
Tyrosine-protein kinase BTK (Homo sapiens), Q06187 [E41K], sequence (Q06187 whole entry E41K): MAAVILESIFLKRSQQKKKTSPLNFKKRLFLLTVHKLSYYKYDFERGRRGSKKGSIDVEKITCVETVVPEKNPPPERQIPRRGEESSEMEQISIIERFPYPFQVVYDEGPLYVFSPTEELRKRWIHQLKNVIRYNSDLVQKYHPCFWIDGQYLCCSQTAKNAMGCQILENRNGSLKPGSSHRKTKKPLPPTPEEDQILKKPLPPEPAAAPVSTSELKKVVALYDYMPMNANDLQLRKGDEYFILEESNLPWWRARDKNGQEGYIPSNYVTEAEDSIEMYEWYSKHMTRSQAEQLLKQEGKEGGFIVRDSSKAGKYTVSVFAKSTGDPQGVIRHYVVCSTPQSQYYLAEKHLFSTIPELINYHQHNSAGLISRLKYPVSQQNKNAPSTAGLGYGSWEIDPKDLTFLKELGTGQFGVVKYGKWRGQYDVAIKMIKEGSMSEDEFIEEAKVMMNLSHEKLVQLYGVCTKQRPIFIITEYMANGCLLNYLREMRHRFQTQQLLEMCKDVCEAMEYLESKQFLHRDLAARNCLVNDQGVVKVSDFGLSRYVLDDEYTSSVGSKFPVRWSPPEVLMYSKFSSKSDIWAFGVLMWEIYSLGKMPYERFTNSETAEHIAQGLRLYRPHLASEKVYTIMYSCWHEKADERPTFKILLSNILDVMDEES

As a reminder, the IC50 is the concentration that gives 50% inhibition. One may read the inhibition as the change of the read-out against control, counted positive when it falls. Low values mean a weak effect, high ones a strong effect. As a reminder, the Cmax is the maximum level reached in the sampled fluid or tissue. With `C=CC(=O)Nc1cc(Nc2ncc(C(=O)OC(C)C)c(-c3cn(C)c4ccccc34)n2)c(OC)cc1N(C)CCN(C)C` [MOBOCERTINIB], the concentration for half-maximal inhibition (IC50) in series [1] came out at 3.3 nM; in [4], 21.3 nM; in series [6] it was 31 nM; in series [11], 22.5 nM. In addition, the inhibition in series [2] is above 81%; in series [5] it was above 97%; in series [7], above 81%; in series [8], above 81%; in [10], above 81%. In [3], this molecule had a Cmax of 82 ng/mL. Besides, the Activity result in series [9] was “Non-Toxic”.
